The values that follow come from ChEMBL document CHEMBL1130497, “Novel 7-hydroxycoumarin based fluorescent labels” (Bioorg Med Chem Lett, 1997).

Structures are written as SMILES.

As a reminder, the pKa is the negative logarithm of the acid dissociation constant.

This data set can be described thus: pKa value was determined. Format: physicochemical.
`O=C(O)CCCCc1cc(=O)oc2c(CN3CCCC3)c(O)ccc12` registered a pKa of 6.7.

Consider `O=C(O)CCCCc1cc(=O)oc2cc(O)ccc12`, for which the pKa stood at 7.8.

In turn, `O=C(O)CCCCc1cc(=O)oc2c(CN3CCCCC3)c(O)ccc12` gave a pKa of 6.6.

Regarding `CCN(CC)Cc1c(O)ccc2c(CCCCC(=O)O)cc(=O)oc12`, the pKa was 6.6.
